We go through nine compounds from US20240051938A1, “SELECTIVE BRD4-DEGRADER MOLECULES” (Regents of the University of Minnesota, priority 2022, published 2024).

Series [1] has as its target T1, BRD3 (Homo sapiens, UniProt Q15059). The following applies: cited from earlier work.
Series [2] has as its target T2, BRD2 (Homo sapiens, UniProt P25440). The conditions noted are these: cited from earlier work.
In series [3] the target is T3, BRD4 (Homo sapiens, UniProt O60885). The following applies: BRD4 degradation, 6 hours, N = 1; for DC50: read-out: HEK293 (DC50).
Method: (§3) HEK293T cells were grown in a humidified 5% CO2 environment at 37° C. Cells were cultured in DMEM media (Corning) supplemented with 10% fetal-bovine serum (FBS, Cellgro), penicillin (50 IU/mL, Cellgro) and streptomycin (50 μg/mL, Cellgro). Once the adherent cells reached 85% confluency, the media was removed, and cells were treated with 0.25% trypsin/EDTA for 2 min. The trypsin was then neutralized, and the cells were pelleted by centrifugation (4000 g, 5 min) before resuspending in new media and subcultured at a 1:20 ratio.
(§4) HEK293T cells were seeded at 500,000 cells/well in a TC-treated 6-well plate and incubated in a 5% CO2 environment at 37° C. for 18 hours. […] Cells were dosed with compound for incubated times. Media was then removed and the cells were washed gently with cold PBS. To the plate was added 100 μL of RIPA buffer supplemented with 1X Roche cOmplete Mini protease inhibitor cocktail. Using a cell scraper, the cells were removed from the plate into the buffer. The cell lysate was then centrifuged at 14,000 rpm at 4° C. for 5 minutes before lysates were normalized by total soluble protein concentration using BCA protein assay kit (Peirce). Normalized samples were mixed with 4× NuPAGE LDS loading buffer (Invitrogen) and 10× reducing agent (Invitrogen), and heated at 95° C. for 10 minutes before separation on 3-8% Tris-Acetate gels. Proteins were transferred to PVDF membranes for 12 minutes on a BioRad Trans-Blot Turbo. Membranes were dried, cut, blocked in TBS-T containing 5% nonfat dry milk, and subsequently incubated with TB S-T containing 5% nonfat dry milk for 16 hours at 4° C. with an additional 2 hours at ambient temperature, with primary antibodies at dilutions listed below. After the membranes were washed five times with TBS-T, they were incubated with secondary antibodies for 2 h. at room temperature. Membranes were washed five times in TBS-T and treated with SuperSignal West Dura substrates (Thermo) for 1 minute and imaged using a LiCor Odyssey Fc. Membranes were then stained for total protein levels with SimplyBlue SafeStain (Invitrogen, Ref 465034) to confirm transfer and loading homogeneity.
(§5) The DCmax and DC50 values were determined via densitometry analysis from western blot data. Curve fitting analysis was conducted via non-linear regression using Graphpad PRISM.
Series [4] concerns the target T3, BRD4. Briefly: cell-based. The following applies: HEK293, read-out: HEK293 (Dmax).
Method: as §3, §4, §5
The target of series [5] is T3, BRD4. Briefly: Rescue of dBRD4-BD1-induced BRD4 degradation in MM.1S cells (competition experiments). The class given is cell-based. The arrangement: endogenous in cells. The conditions noted are these: competition with dBRD4-BD1.
Method: Western Blotting: MM.1S cells were seeded in 12-well plates at a density of 4×10^6 cells per well and treated with compounds for indicated times. Cells were transferred to 2 mL microcentrifuge tubes and harvested by low-speed centrifugation at 500×g. for 5 minutes. The well was rinsed, and the cell pellet washed twice with ice-cold PBS with centrifuging. The supernatant was carefully decanted, and the cell pellet was resuspended for lysis in 100 μL of RIPA buffer (ThermoFisher Scientific) supplemented with 1× cOmplete Mini Protease (Roche) and stored on ice for 10 minutes. After high-speed centrifugation (10 min at 10,000 X g.), protein concentrations were determined by the BCA assay (ThermoFisher Scientific) and normalized by total protein content. Normalized samples were mixed with 4× NuPAGE LDS loading buffer (Invitrogen) and 10× reducing agent (Invitrogen), and heated at 95° C. for 10 minutes before separation on 3-8% Tris-Acetate gels. Proteins were transferred to PVDF membranes for 12 minutes on a BioRad Trans-Blot Turbo. Membranes were dried, blocked in TBS-T containing 5% nonfat dry milk, and subsequently incubated with TBS-T containing 5% nonfat dry milk for 4 hours at room temperature, or 16 hours at 4° C., with primary antibodies at dilutions listed below. After the membranes were washed five times with TBS-T, they were incubated with secondary antibodies for 2 hours. at room temperature. Membranes were washed five times in TBS-T and treated with SuperSignal West Dura substrates (Thermo) for 1 minute and imaged using a LiCor Odyssey Fc.
Series [6] deals with T3, BRD4. Briefly: Western blot BRD4 degradation in MV411 cells. The class given is cell-based. The arrangement: endogenous in cells. The following applies: 6 hours, N = 1.
Series [7] can be described thus: Solubility observed in AlphaScreen assay. The conditions noted are these: required increased DMSO (1% v/v) in assay. Background: In Alpha technology, singlet oxygen from a donor bead excites a nearby acceptor bead.
The next series deals with MM.1S cells. The experiment in a line: 72 hour Alamar blue cytotoxicity assay of MM.1S cells. The class given is cell-based. How it is done: FIG. 5: 72 hour Alamar blue cytotoxicity assay of MM.1S cells with compounds. Data reported as mean±SD of three independent trials of three replicates each.
Viability Assays: MM. 1 S cells were seeded in 96-well plates at approximately 20 000 cells per well (0.05 mL) and dosed with increasing compound concentrations in the presence of DMSO with three technical replicates per concentration. After incubation for 69 hours at 37° C., 10 μL of the Alamar Blue reagent (Invitrogen) was added to each well and the plates were incubated for 3 hours at 37° C. Fluorescence was determined using a Synergy plate reader (BioTek, Ex.: 560 nm, Em.: 590 nm) and dose-response data were normalized to untreated and blank wells containing 0.05% DMSO in cell culture media. Data analysis was performed using GraphPad Prism.

Another series relates to cMyc. The experiment in a line: Western blot cMyc expression in MM.1S cells. The conditions noted are these: compared with previously reported BRD4 degraders. The class given is cell-based. How it is done:
(§1) Western Blotting: MM.1S cells were seeded in 12-well plates at a density of 4×10^6 cells per well and treated with compounds for indicated times. Cells were transferred to 2 mL microcentrifuge tubes and harvested by low-speed centrifugation at 500×g. for 5 minutes. The well was rinsed, and the cell pellet washed twice with ice-cold PBS with centrifuging. The supernatant was carefully decanted, and the cell pellet was resuspended for lysis in 100 μL of RIPA buffer (ThermoFisher Scientific) supplemented with 1× cOmplete Mini Protease (Roche) and stored on ice for 10 minutes. After high-speed centrifugation (10 min at 10,000 X g.), protein concentrations were determined by the BCA assay (ThermoFisher Scientific) and normalized by total protein content.
For orientation: In western blotting, separated proteins are transferred to a membrane and probed.

Another series deals with T4, p38a kinase (Homo sapiens, UniProt Q16539).
T4 construct: endogenous in cells; host or cells: MM.1S
T4 sequence (Q16539 whole entry): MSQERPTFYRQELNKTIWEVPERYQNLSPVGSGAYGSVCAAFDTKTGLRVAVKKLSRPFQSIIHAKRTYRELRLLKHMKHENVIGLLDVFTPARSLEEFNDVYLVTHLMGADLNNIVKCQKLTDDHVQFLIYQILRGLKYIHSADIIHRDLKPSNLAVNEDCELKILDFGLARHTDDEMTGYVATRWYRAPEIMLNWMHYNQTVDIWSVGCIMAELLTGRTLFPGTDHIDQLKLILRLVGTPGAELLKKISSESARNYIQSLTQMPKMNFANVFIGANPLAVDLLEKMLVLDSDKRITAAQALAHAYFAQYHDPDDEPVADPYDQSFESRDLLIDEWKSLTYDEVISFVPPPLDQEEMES
Briefly: Western blot p38a levels in MM.1S cells. The following applies: 24-hour time-point or time-course study at 5 μM. The class given is cell-based. How it is done:
(§2) FIG. 4A-4D: Degradation of BRD4 in MM.1S cells. (A) Representative blots for degradation of BRD4 after 24-hour treatment. (B) Quantified densitometry for three biological replicates of blots from (A). (C) Time-course study of BRD4 degradation by dBRD4-BD1. (D) Rescue of BRD4 degradation using pan-BD1, proteasome and neddylation inhibitors, but not pan-BD2 inhibitor, iBET-BD2.
as §1

In series [8] the target is T1, BRD3. Briefly: Western blot BRD3 levels in MM.1S cells. The class given is cell-based. How it is done: as §2, §1
Series [9] has as its target T2, BRD2. The experiment in a line: Western blot BRD2 levels in MM.1S cells. The class given is cell-based. How it is done:
as §2, §1

Series [10] addresses T3, BRD4. The experiment in a line: Western blot BRD4 degradation in MM.1S cells. The class given is cell-based. Set-up: endogenous in cells.
Text: as §2
The mixed suspension/adherent cells were subcultured at a 1:10 dilution by decanting suspended cells and dissociating adherent cells from plates in 0.25% trypsin/EDTA (Gibco) with 2 min incubation times. Cell-line authenticity was verified using the short-tandem-repeat (STR)-profiling service provided by ATCC.
as §1

In the next series the target is T5, 9xHis-BRD4-BD1 (Homo sapiens, UniProt O60885).
T5 construct: 30 nM for His9-tagged BRD4-BD1 bromodomain and 50 nM for the biotinylated peptide were used; made in house
Briefly: AlphaScreen binding assay with His9-tagged BRD4-BD1 (1% DMSO). The following applies: 1% v/v DMSO; mean of three independent trials in duplicate; read-out: BRD4-BD1 IC50 (apparent binding).

The target of series [11] is BRD4 (Homo sapiens, UniProt O60885+Q96SW2). Briefly: TR-FRET ternary-complex formation. The class given is biochemical.
Chain of BRD4 (Homo sapiens, UniProt O60885+Q96SW2) (Q96SW2 whole entry, one chain of several): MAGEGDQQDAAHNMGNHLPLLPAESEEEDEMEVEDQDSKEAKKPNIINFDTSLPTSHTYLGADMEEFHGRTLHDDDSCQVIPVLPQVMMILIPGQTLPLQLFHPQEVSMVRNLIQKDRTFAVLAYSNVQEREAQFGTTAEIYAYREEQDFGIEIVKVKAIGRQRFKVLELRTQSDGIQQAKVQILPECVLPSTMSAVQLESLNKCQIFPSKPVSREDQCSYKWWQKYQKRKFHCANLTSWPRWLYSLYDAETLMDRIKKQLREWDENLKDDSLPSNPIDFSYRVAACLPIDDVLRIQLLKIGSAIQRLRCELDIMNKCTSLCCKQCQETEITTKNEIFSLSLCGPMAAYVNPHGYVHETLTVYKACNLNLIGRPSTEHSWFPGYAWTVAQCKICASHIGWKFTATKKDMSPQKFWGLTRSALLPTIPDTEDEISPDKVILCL
The target in series [12] is T3, BRD4. Briefly: Competition of MZ1-induced BRD4 degradation with pan-BD1 or pan-BD2 inhibitors. The class given is cell-based. Set-up: endogenous in cells; host or cells: HEK293T. The following applies: competition with pan-BET degrader MZ1.

Like-named read-outs stand apart in the source and are kept apart here. Peptide text beside a SMILES is read from it. * marks the point of attachment. Cbz = O=C(OCc1ccccc1)*

T2 sequence (P25440 whole entry): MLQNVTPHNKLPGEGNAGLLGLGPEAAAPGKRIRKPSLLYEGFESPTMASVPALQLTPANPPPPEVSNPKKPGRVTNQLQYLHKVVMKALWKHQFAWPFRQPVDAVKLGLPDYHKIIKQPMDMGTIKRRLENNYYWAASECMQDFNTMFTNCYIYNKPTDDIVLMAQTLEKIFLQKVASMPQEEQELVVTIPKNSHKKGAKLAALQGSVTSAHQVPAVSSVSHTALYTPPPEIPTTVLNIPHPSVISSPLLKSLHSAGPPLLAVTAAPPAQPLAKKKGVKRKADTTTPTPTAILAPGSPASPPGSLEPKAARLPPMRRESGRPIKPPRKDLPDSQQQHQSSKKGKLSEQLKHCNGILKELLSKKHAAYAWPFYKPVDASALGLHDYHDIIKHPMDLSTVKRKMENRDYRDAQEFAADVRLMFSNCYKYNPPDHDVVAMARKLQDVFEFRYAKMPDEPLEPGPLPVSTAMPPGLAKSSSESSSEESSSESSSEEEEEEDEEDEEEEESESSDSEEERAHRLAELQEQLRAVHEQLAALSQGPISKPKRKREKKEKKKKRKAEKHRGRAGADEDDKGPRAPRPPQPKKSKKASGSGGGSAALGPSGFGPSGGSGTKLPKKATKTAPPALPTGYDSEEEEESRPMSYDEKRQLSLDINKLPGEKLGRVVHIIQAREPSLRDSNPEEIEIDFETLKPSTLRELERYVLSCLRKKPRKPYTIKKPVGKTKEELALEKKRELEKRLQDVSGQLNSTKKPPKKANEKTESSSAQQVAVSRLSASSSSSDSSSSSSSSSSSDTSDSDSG
T1 sequence (Q15059 whole entry): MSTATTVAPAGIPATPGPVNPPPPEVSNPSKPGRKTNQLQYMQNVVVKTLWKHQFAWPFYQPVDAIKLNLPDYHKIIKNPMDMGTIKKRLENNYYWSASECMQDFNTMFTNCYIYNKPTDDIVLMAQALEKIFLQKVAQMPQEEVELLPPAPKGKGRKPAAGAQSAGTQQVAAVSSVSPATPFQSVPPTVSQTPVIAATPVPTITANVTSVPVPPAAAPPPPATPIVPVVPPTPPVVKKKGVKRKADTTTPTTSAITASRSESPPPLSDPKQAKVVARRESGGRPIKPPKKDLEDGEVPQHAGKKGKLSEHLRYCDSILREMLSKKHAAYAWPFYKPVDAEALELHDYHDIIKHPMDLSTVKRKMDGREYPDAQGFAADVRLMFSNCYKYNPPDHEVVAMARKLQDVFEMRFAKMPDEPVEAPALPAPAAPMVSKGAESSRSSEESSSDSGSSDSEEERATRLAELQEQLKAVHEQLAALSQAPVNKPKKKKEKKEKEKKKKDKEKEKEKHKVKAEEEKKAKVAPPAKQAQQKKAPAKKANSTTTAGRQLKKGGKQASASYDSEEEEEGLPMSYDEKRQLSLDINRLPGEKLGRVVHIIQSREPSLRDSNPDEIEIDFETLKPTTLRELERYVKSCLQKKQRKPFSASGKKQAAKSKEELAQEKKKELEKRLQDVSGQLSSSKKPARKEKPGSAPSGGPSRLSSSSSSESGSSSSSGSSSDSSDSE
Method for 9xHis-BRD4-BD1: (B) Alphascreen binding assay with 9xHis-BRD4-BD1, reported as mean±SD of three independent trials performed in duplicate.
The AlphaScreen assay procedure for BRD4-BD1 bromodomain was adapted from the manufacturers protocol (PerkinElmer, USA). […] The biotinylated histone H4 KAc5,8,12,16 peptide was purchased from EpiCypher, with the sequence: Ac-SGRGK(Ac)GGK(Ac)GLGK(Ac)G-GAK(Ac)RHRKVLR-Peg(Biot). All reagents were diluted in the assay buffer (50 mM HEPES-Na+(ChemImpex), 100 mM NaCl (SigmaAldrich), 0.05% CHAPS (RPI), 0.1% BSA (SigmaAldrich), pH 7.4). The final assay concentrations (after the addition of all assay components) of 30 nM for His9-tagged BRD4-BD1 bromodomain and 50 nM for the biotinylated peptide were used. 3-fold serial dilutions were prepared with varying concentrations of the compounds and a fixed protein concentration, keeping the final DMSO concentration at 1% v/v. […] This was followed by the addition of 5 μL of the biotinylated peptide. 5 μL of nickel chelate acceptor beads and 5 μL of streptavidin donor beads were added to each well under low light conditions (<100 lux), to a final concentration of 20 μg/mL. The plate was sealed and incubated at room temperature in the dark for 1 hour. It was then read in AlphaScreen mode using a Tecan Spark plate reader. Each compound was run in two technical replicates, with at least three biological replicates.

As to `CC(=O)N[C@H](C(=O)N1C[C@H](O)C[C@H]1C(=O)NCc1ccc(-c2scnc2C)cc1)C(C)(C)SCCCCCCNC(=O)C[C@@H]1N=C(c2ccc(Cl)cc2)c2c(sc(C)c2C)-n2c(C)nnc21` [AT1], the “concentration of BRD3 upon BRD4 degradation” value at BRD3 [1] is recorded as “remain unchanged”. Besides, at BRD2 [2], the “concentration of BRD2 upon BRD4 degradation” value was “remain unchanged”.
As usually defined, the DC50 is the concentration at which degradation of the target reaches its halfway point. Consider `Cc1ccc(C(C)C)cc1Oc1nccc(-c2c(-c3ccc(C(F)(F)F)cc3)ncn2C2CCN(CCOCCOCCNC(=O)CN(C)c3cccc4c3C(=O)N(C3CCC(=O)NC3=O)C4=O)CC2)n1` (centres unmarked) [Example 4], for which the DC50 at BRD4 [3] was found to be 105 nM. On BRD4 [4], the Dmax was 84%.
The like results for `Cc1ccc(C(C)C)cc1Oc1nccc(-c2c(-c3ccc(C(F)(F)F)cc3)ncn2C2CCN(CCOCCOCCNC(=O)CNc3cccc4c3C(=O)N(C3CCC(=O)NC3=O)C4=O)CC2)n1` (centres unmarked) [Example 5] were, in that order, 290 nM and 60%.
The like results for `Cc1ccc(C(C)C)cc1Oc1nccc(-c2c(-c3ccc(C(F)(F)F)cc3)ncn2C2CCN(CCNC(=O)COc3cccc4c3C(=O)N(C3CCC(=O)NC3=O)C4=O)CC2)n1` (centres unmarked) [Example 6] were, in that order, 810 nM and 95%.
As to `CC(C)C[C@@H](C=O)NC(=O)[C@H](CC(C)C)NC(=O)[C@H](CC(C)C)NC(=O)OCc1ccccc1` [MG-132] (Cbz-Leu-Leu-Leu-aldehyde), on BRD4 [5], the “rescue of BRD4 degradation by dBRD4-BD1” value is reported as “rescue of BRD4 degradation was observed”.
The same measure, in the same setting: as for `NS(=O)(=O)OC[C@@H]1C[C@@H](n2ccc3c(N[C@H]4CCc5ccccc54)ncnc32)C[C@@H]1O` [MLN4924], the entry is “rescue of BRD4 degradation was observed”.
`COC(=O)C[C@@H]1N=C(c2ccc(Cl)cc2)c2c(sc(C(=O)NCCCCCNc3cccc4c3C(=O)N(C3CCC(=O)NC3=O)C4=O)c2C)-n2c(C)nnc21` (some centres unmarked) [ZXH-3-26]: the “concentration of BRD3 upon BRD4 degradation” value at BRD3 [1] is given as “remain unchanged”. Further, the “concentration of BRD2 upon BRD4 degradation” value at BRD2 [2] is “remain unchanged”.
Usually IC50 stands for the concentration at which inhibition is half-maximal. On to `Cc1ccc(C(C)C)cc1Oc1nccc(-c2c(-c3ccc(C(F)(F)F)cc3)ncn2C2CCN(CCOCCOCCNC(=O)COc3cccc4c3C(=O)N(C3CCC(=O)NC3=O)C4=O)CC2)n1` (centres unmarked) [dBRD4-BD1], for which, at BRD4 [6], the DC50 is 14 nM and the “MV411 (Dmax)” value is given as 85%. For the same compound, the solubility result in series [7] is “poor solubility”. The cytotoxicity entry in the series on MM.1S cells is on record as “lower observed cytotoxicity”. In the series on cMyc, the “effect on cMyc expression” value is “weaker effect on cMyc expression”. Moreover, at p38a kinase, the “degradation of p38a” value is listed as “not observed”. For the same compound, the “BRD3 level at concentrations where BRD4 was degraded” value at BRD3 [8] is “upregulated”. The “degradation of BRD3” value at BRD3 [8] (24-hour treatment) is on record as “not observed”. For the same compound, on BRD4 [3], the “HEK293 (Dmax)” value came out at 100% and the DC50 was determined as 500 nM. In addition, the “BRD2 level at concentrations where BRD4 was degraded” value at BRD2 [9] is recorded as “upregulated”. Further, at BRD2 [9] (24-hour treatment), the “degradation of BRD2” value is “not observed”. Further, on BRD4 [10] (24-hour treatment), the “BRD4 degradation Dmax” value is reported as 23%, half-maximal degradation (DC50) was put at 280 nM and the “concentration above which BRD4 degradation diminished (hook effect)” value is greater than 5 µM. The “time to maximal BRD4 degradation” value on BRD4 [10] (time-course study at 5 μM) was found to be 8 h. Also, the IC50 at 9xHis-BRD4-BD1 stood at 1360 nM. Besides, at BRD4 [11], the “ternary-complex formation by TR-FRET” value is “moderate ternary-complex formation”.
On to `CC(=O)Nc1c(F)cc(C(=O)N[C@H]2CC[C@H](O)CC2)cc1O[C@@H](C)c1ccccc1` [iBET-BD2], for which, at BRD4 [5], the “rescue of BRD4 degradation by dBRD4-BD1” value is on record as “no effect”. In addition, the “prevention of MZ1-induced BRD4 degradation by competitor” value on BRD4 [12] is “neither BD1 nor BD2 inhibition was able to prevent BRD4 degradation”.
